Test results as given in patent US5556859A, “N-(4-pyrimidinyl)amide pesticides” (DowElanco, priority 1994, dated 1996).

Columns and labels:
[1] = test system: beet armyworm (Spodoptera exiqua); assay: whole plant or invertebrate; settings: 144 h, read-out: percent mortality, BAW
[2] = test system: aster leafhopper (Macrosteles fascifrons); assay: whole plant or invertebrate; settings: 24 h, read-out: percent mortality, ALH
[3] = test system: two spotted spider mite (Tetranychus urticae); assay: whole plant or invertebrate; settings: 72 h, read-out: percent mortality, TSSM
[4] = test system: peanut root knot nematode (Meloidogyne arenaria); assay: whole plant or invertebrate; settings: in Arachis hypogaea, read-out: percent mortality, RKN
[5] = test system: Southern corn rootworm (Diabrotica undecimpuctata howardi Barber); assay: whole plant or invertebrate; settings: in Zea mays, soil, read-out: percent mortality, SCRW
[6] = test system: tobacco budworm (Heliothis virescens); assay: Activity against tobacco budworm (TBW); assay type: in vivo; settings: 144 h, read-out: percent mortality, TBW
In short: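 Eighteen to twenty Heliothis virescens eggs were placed on half-strength artificial diet and sprayed one hour later with compound at 400 and 50 ppm, in aqueous Tween 20 with acetone/EtOH. Cups were held 6 days at room temperature. Ratings were based on live and dead larval counts and live larval size.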

[7] = test system: cotton aphid (Aphis gossypii); assay: whole plant or invertebrate; settings: 72 h, read-out: percent mortality, CA
[8] = test system: German cockroach (Blattella germanicus); assay: whole plant or invertebrate; settings: 240 h, read-out: percent mortality, GECR

| Compound | mortality at 400 ppm [1] [%] | mortality at 400 ppm [2] [%] | mortality at 400 ppm [3] [%] | mortality at 400 ppm [4] [%] | mortality at 24 µg/g [5] [%] | mortality at 400 ppm [6] [%] | mortality at 400 ppm [7] [%] | mortality at 400 ppm [8] [%] |
| --- | --- | --- | --- | --- | --- | --- | --- | --- |
| O=C(Cc1ccc(Oc2ccc(C(F)(F)F)cc2)cc1)Nc1ccncn1 [Compound 68, 4-(4-trifluoromethylphenoxy)phenyl-N-(4-pyrimidinyl)acetamide] | 0 | 0 | 0 | 100 | 0 | 100 | 0 | 0 |
| Cc1nccc(NC(=O)Cc2ccc(Oc3ccc(Cl)cc3)cc2)n1 [Compound 1, 4-(4-chlorophenoxy)phenyl-N-(2-methyl-4-pyrimidinyl)acetamide] | 100 | 0 | 100 | 100 | 100 | 100 | 100 | 100 |
| CC(C)(C)c1nccc(NC(=O)Cc2ccc(Oc3ccc(C#N)cc3)cc2)n1 [Compound 60, 4-(4-cyanophenoxy)phenyl-N-(2-(1,1-dimethylethyl)-4-pyrimidinyl)acetamide] | 100 | 100 | 100 | 100 | 100 | 100 | 100 | 100 |
